Measurements: US5449750A, “Prolyl endopeptidase inhibitors SNA-115 and SNA-115T, and process for the production and productive strain thereof” (Snow Brand Milk Products Co., Ltd., priority 1991, dated 1995)
“And” between values parts separate entries of the source, which are not always exact repeats. Equal entries are not always repeated. Where two headings read alike, the source gives them in different places. Where a SMILES comes first, the peptide text is derived from it. Bridges are numbered along the chain shown (N, C = ends). Roman numbers before positions name the chains, in order.

How the values were obtained:
[1] = target: prolyl endopeptidase derived from Flavobacterium (Elizabethkingia meningoseptica, UniProt P27028); experiment: Prolyl endopeptidase inhibitory activity (Z-Gly-Pro-pNA substrate, p-nitroaniline at 410 nm); type: biochemical; conditions: for IC50: 50% inhibitory concentration (IC50), 0.2 mM Z-Gly-Pro-pNA as substrate, sample in methanol, 30° C., pH 7.0; for inhibitory pattern / Ki: Dixon plot; for Ki: inhibitor constant Ki, various concentrations of substrate and inhibitor
[2] = system: Salmonella typhimurium SL 1102; experiment: Antimicrobial activity, paper disc method; type: cell-based; conditions: 40 μg per disc
Experimental: (§1) The antimicrobial activity of SNA-115 was determined in 24 bacteria, fungi, and yeasts by paper disc method. SNA-115 was placed on paper discs at an amount of 40 μg each and the disc was placed on the test plates. The test plates were cultured under optimal conditions of the test microorganisms.
The antimicrobial activity of SNA-115T compound was determined in 9 bacteria and fungi by paper disc method in an agar plate. SNA-115T was placed on paper discs at an amount of 40 μg each and the disc was placed on the test plates. The test plates were cultured under optimal conditions of the rest microorganisms. The inhibition zones of SNA-115 were also shown for the comparison.

[3] = system: Pseudomonas aeruginosa N-10 (L-form); experiment: Antimicrobial activity, paper disc method; type: cell-based; conditions: 40 μg per disc
Bacillus subtilis rec^+ = experiment: Antimicrobial activity, paper disc method; type: cell-based; conditions: 40 μg per disc
Bacillus subtilis rec^- = experiment: Antimicrobial activity, paper disc method; type: cell-based; conditions: 40 μg per disc
[4] = system: Mycobacterium phlei IFO 3158; experiment: Antimicrobial activity, paper disc method; type: cell-based; conditions: 40 μg per disc
[5] = system: Xanthomonas oryzae IFO 3312; type: cell-based
[6] = system: Xanthomonas citri IFO 3781; experiment: Antimicrobial activity, paper disc method; type: cell-based; conditions: 40 μg per disc
[7] = system: Botrytis cinerea IFO 5365; experiment: Antimicrobial activity, paper disc method; type: cell-based; conditions: 40 μg per disc
[8] = system: Pyricularia oryzae IFO 5994; type: cell-based
[9] = Acute toxicity (intravenous injection)
[10] = system: Human epidermoid carcinoma (oral) KB cells; experiment: Cytotoxicity, cell proliferation (MTT); type: cell-based; conditions: 72 hrs culture
Experimental: (§2) Human epidermoid carcinoma (oral) KB cells and mouse leukemia L1210 cells each were placed in a 96 wells microplate (2,000 cells/100 μl/well). The former cells were cultured in DMEM medium and the latter cells were cultured in RPMI 1640 medium, each containing 5% FCS. They were cultured in the presence of 5% CO2 at 37° C. for 24 hrs. Five μl each of a serial concentration of SNA-115 in methanol were added to the wells and cultured for 72 hrs. and cultured further 4 hrs. after the addition of 10 μl of 2.5 mg/ml MTT solution to produce formazan. The cultured mixture was centrifuged at 2,000 rpm for 2 min., the supernatant was removed, 100 μl of DMSO was added to the residue and the absorption at 540 nm was determined by an immunoreader. The cell proliferation inhibitory activity of samples was obtained from comparison of their ratios to that of control group.

[11] = system: mouse leukemia L1210 cells; experiment: Cytotoxicity, cell proliferation (MTT); type: cell-based; conditions: 72 hrs culture
Experimental: as §2

Alternaria mali IFO 8984 = experiment: Antimicrobial activity, paper disc method; type: cell-based; conditions: 40 μg per disc
Experimental: as §1

[12] = system: Candida albicans IFO 1594; experiment: Antimicrobial activity, paper disc method; type: cell-based; conditions: 40 μg per disc
Experimental: as §1

Chlorella vulgaris = experiment: Antimicrobial activity, paper disc method; type: cell-based; conditions: 40 μg per disc
Experimental: as §1

[13] = system: Colletotrichum lagenarium IFO 7513; experiment: Antimicrobial activity, paper disc method; type: cell-based; conditions: 40 μg per disc
Experimental: as §1

Escherichia coli AB 1157 = experiment: Antimicrobial activity, paper disc method; type: cell-based; conditions: 40 μg per disc
Experimental: as §1

Escherichia coli BE 1186 = experiment: Antimicrobial activity, paper disc method; type: cell-based; conditions: 40 μg per disc
Experimental: as §1

[14] = system: Escherichia coli multi resistant; experiment: Antimicrobial activity, paper disc method; type: cell-based; conditions: 40 μg per disc
Experimental: as §1

[15] = system: Fusarium oxysporum IFO 9761; experiment: Antimicrobial activity, paper disc method; type: cell-based; conditions: 40 μg per disc
Experimental: as §1

[16] = system: Micrococcus luteus IFO 12708; experiment: Antimicrobial activity, paper disc method; type: cell-based; conditions: 40 μg per disc
Experimental: as §1

[17] = system: Pseudomonas aeruginosa IFO 13130; experiment: Antimicrobial activity, paper disc method; type: cell-based; conditions: 40 μg per disc
Experimental: as §1

[18] = system: Salmonella typhimurium TV 119; experiment: Antimicrobial activity, paper disc method; type: cell-based; conditions: 40 μg per disc
Experimental: as §1

[19] = system: Schizosaccharomyces Pombe IFO 0638; experiment: Antimicrobial activity, paper disc method; type: cell-based; conditions: 40 μg per disc
Experimental: as §1

[20] = system: Staphylococcus aureus IFO 12732; experiment: Antimicrobial activity, paper disc method; type: cell-based; conditions: 40 μg per disc
Experimental: as §1

[21] = system: Staphylococcus aureus multi resistant; experiment: Antimicrobial activity, paper disc method; type: cell-based; conditions: 40 μg per disc
Experimental: as §1

[22] = system: Trichophyton rubrum IFO 6203; experiment: Antimicrobial activity, paper disc method; type: cell-based; conditions: 40 μg per disc
Experimental: as §1

Solubility in solvents = conditions: organic solvents and water, qualitative
[23] = ( ) indicates partial inhibition

Sequence of prolyl endopeptidase derived from Flavobacterium (P27028 21-705): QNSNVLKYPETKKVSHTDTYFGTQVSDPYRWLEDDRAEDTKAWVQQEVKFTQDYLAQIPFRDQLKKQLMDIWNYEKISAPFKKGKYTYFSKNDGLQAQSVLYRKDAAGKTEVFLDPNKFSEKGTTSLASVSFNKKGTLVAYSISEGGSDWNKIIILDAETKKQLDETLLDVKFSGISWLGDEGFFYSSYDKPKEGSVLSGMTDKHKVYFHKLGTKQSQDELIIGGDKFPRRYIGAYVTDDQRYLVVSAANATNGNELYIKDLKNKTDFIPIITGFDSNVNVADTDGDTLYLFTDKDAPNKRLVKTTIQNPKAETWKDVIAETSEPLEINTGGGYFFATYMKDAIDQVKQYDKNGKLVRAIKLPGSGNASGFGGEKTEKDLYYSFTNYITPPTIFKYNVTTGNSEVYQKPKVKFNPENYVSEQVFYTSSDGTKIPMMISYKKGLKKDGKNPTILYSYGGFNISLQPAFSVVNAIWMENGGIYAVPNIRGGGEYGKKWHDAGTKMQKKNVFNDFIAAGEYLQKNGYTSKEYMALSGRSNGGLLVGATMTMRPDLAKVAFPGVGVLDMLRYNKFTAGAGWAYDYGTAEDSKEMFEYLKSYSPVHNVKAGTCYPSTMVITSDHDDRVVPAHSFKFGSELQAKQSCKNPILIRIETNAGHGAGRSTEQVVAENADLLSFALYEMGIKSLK

CC[C@H](C)[C@H](NC(=O)[C@H](Cc1ccccc1)NC(=O)[C@@H](NC(=O)[C@H](Cc1c[nH]cn1)NC(=O)CNC(=O)CNC(=O)[C@H](Cc1ccccc1)NC(=O)[C@H](CC(C)C)NC(=O)[C@@H](N)CC(=O)NCC(=O)N[C@@H](Cc1ccc(O)cc1)C(=O)N1CCC[C@H]1C(=O)N[C@@H](Cc1c[nH]c2ccccc12)C(=O)N[C@@H](Cc1c[nH]c2ccccc12)C(=O)N[C@@H](CC(=O)O)C(=O)N[C@@H](Cc1ccc(O)cc1)C(=O)N[C@@H](CCCNC(=N)N)C(=O)O)[C@@H](C)O)C(=O)N[C@@H](CO)C(=O)N1CCC[C@H]1C(=O)O [SNA-115T] (I: H-DLFGGHTFISP-OH / II: GYPWWDYR-OH; amide I:1-II:N)
IC50 [1]: 1300 nM
inhibitory pattern [1]: competitive inhibition
Ki [1]: 475 nM and 480 nM
Inhibition zone [2]: 0 mm
Inhibition zone [3]: 0 mm
Inhibition zone (Bacillus subtilis rec^+): 0 mm
Inhibition zone (Bacillus subtilis rec^-): 0 mm
Inhibition zone [4]: 0 mm
Inhibition zone ([5]; paper disc, 40 μg per disc): 0 mm
Inhibition zone [6]: 0 mm
Inhibition zone [7]: 0 mm
Inhibition zone ([8]; paper disc, 40 μg per disc): 0 mm
acute toxicity [9]: ≥ 10 mg/kg

CC[C@H](C)[C@H](NC(=O)[C@H](Cc1ccccc1)NC(=O)[C@@H](NC(=O)[C@H](Cc1c[nH]cn1)NC(=O)CNC(=O)CNC(=O)[C@H](Cc1ccccc1)NC(=O)[C@H](CC(C)C)NC(=O)[C@@H]1CC(=O)NCC(=O)N[C@@H](Cc2ccc(O)cc2)C(=O)N2CCC[C@H]2C(=O)N[C@@H](Cc2c[nH]c3ccccc23)C(=O)N[C@@H](Cc2c[nH]c3ccccc23)C(=O)N[C@@H](CC(=O)O)C(=O)N[C@@H](Cc2ccc(O)cc2)C(=O)N[C@@H](CCCNC(=N)N)C(=O)N1)[C@@H](C)O)C(=O)N[C@@H](CO)C(=O)N1CCC[C@H]1C(=O)O [SNA-115] (GYPWWDYRDLFGGHTFISP-OH; lactam N-9)
inhibitory pattern [1]: competitive inhibition
IC50 against cell proliferation [10]: > 1,000 μg/ml
IC50 against cell proliferation [11]: > 1,000 μg/ml
Inhibition zone (Alternaria mali IFO 8984): 0 mm
Inhibition zone [12]: 0 mm
Inhibition zone (Chlorella vulgaris): 0 mm
Inhibition zone [13]: 0 mm
Inhibition zone (Escherichia coli AB 1157): 0 mm
Inhibition zone (Escherichia coli BE 1186): 0 mm
Inhibition zone [14]: 0 mm
Inhibition zone [15]: 0 mm
Inhibition zone [16]: 0 mm
Inhibition zone [17]: 0 mm
Inhibition zone [18]: 0 mm
Inhibition zone [19]: 0 mm
Inhibition zone [20]: 0 mm
Inhibition zone [21]: 0 mm
Inhibition zone [22]: 0 mm
Inhibition zone [2]: 0 mm
Inhibition zone [3]: 10.6 mm and 16.8 mm
Inhibition zone, partial inhibition (value in parentheses) [3, 23]: 15.2 mm
Inhibition zone (Bacillus subtilis rec^+): 0 mm
Inhibition zone (Bacillus subtilis rec^-): 0 mm
Inhibition zone, partial inhibition (value in parentheses) (Bacillus subtilis rec^-; [23]): 15.2 mm
Inhibition zone [4]: 14.5 mm and 13.8 mm
Inhibition zone [5]: 11.5 mm
Inhibition zone (class symbol) [5]: + (key: + indicates inhibitory zone diameter of 10 mm or less)
Inhibition zone [6]: 0 mm
Inhibition zone [7]: 0 mm
Inhibition zone [8]: 0 mm

CC[C@H](C)[C@H](NC(=O)[C@H](Cc1ccccc1)NC(=O)[C@@H](NC(=O)[C@H](Cc1cnc[nH]1)NC(=O)CNC(=O)CNC(=O)[C@H](Cc1ccccc1)NC(=O)[C@H](CC(C)C)NC(=O)[C@@H]1CC(=O)NCC(=O)N[C@@H](Cc2ccc(O)cc2)C(=O)N2CCC[C@H]2C(=O)N[C@@H](Cc2c[nH]c3ccccc23)C(=O)N[C@@H](Cc2c[nH]c3ccccc23)C(=O)N[C@@H](CC(=O)O)C(=O)N[C@@H](Cc2ccc(O)cc2)C(=O)N[C@@H](CCCNC(=N)N)C(=O)N1)[C@@H](C)O)C(=O)N[C@@H](CO)C(=O)N1CCC[C@H]1C(=O)O [SNA-115] (GYPWWDYRDLFGGHTFISP-OH; lactam N-9)
IC50 [1]: 1130 nM and 1100 nM
Ki [1]: 697 nM and 700 nM
Solubility (Solubility in solvents): Soluble in methanol, dimethylsulfoxide, butanol and ethanol, and insoluble in acetonitrile, chloroform, acetone and water
acute toxicity [9]: ≥ 10 mg/kg
